Experiment [1] addresses VEGFR2 (cytoplasmic domain KDR protein) (Homo sapiens (Human), UniProt P35968). As to the kind of experiment: VEGFR2 Kinase Assay (biochemical KDR kinase assay, ELISA). The following applies: read-out: VEGFR2 Enzyme Assay (IC50 nM); 2.7 μM ATP. (In general: In an ELISA, binding on a coated surface is turned into a signal by an enzyme label.)
Experiment [2] concerns the target recombinant human GST-PKR (Homo sapiens (Human), UniProt P19525). As to the kind of experiment: PKR KinaseGlo Assay. The class given is biochemical. Particulars: 6.6 uM ATP; read-out: PKR KINASEGLO Enzyme Assay IC50. The procedure:
Commercially available recombinant human GST-PKR (SignalChem, Canada; 1.5 uM-2 uM stock) is diluted to 500 nM in assay buffer (20 mM Tris-HCl, pH 7.2, 10 mM KCl, 10 mM MgCl2, 10% glycerol). Preactivated PKR is dispensed to 384/96-well black plates at 3.125/12.5 uls/well using the liquid handler Janus. Appropriate dilutions of inhibitors are added to 384/96-well plate followed by 6.6 uM ATP (final) and incubated for 10 minutes at room temperature. The remaining ATP/well is determined by adding 6.25/25 uls/well Kinase-Glo assay mix (Promega) and luminescence is measured on EnVision luminescence plate reader (integration time, 0.2 sec; Perkin-Elmer, Massachusetts, USA). […] IC50 values are determined by plotting % activity versus inhibitor concentration. Curves are fitted using Activity base XLfit (IDBS, UK) using the formula— 4 Parameter Logistic Model fit=(A+((B−A)/(1+(10^((C−x)*D))))) inv=(C−(log(((B−A)/(y−A))−1)/D)) res=(y−fit)
On the technique in general: Kinase-Glo reads ATP consumption through a luciferase reaction.

The next experiment has as its target VEGFR2 (Homo sapiens (Human), UniProt P35968). Put plainly: VEGFR2 Cellular Assay (FLIPR, VEGF induced intracellular calcium in HUVEC). For orientation: Calcium flux is commonly read through the fluorescence of an indicator in the cells.
Experiment [3] deals with PDGFRβ (cytoplasmic domain PDGFR-b protein) (Homo sapiens (Human), UniProt P09619). Put plainly: PDGFRβ Kinase Assay (biochemical, ELISA). Particulars: 36 μM ATP; read-out: PDGFRβ Enzyme Assay (IC50 nM).
For a further experiment, the target named is PDGFRβ (Homo sapiens (Human), UniProt P09619). As to the kind of experiment: PDGFRβ Cellular Assay (FLIPR, PDGF-induced intracellular calcium in NHDF-Ad).
Sequence of PDGFRβ (P09619 33-1106): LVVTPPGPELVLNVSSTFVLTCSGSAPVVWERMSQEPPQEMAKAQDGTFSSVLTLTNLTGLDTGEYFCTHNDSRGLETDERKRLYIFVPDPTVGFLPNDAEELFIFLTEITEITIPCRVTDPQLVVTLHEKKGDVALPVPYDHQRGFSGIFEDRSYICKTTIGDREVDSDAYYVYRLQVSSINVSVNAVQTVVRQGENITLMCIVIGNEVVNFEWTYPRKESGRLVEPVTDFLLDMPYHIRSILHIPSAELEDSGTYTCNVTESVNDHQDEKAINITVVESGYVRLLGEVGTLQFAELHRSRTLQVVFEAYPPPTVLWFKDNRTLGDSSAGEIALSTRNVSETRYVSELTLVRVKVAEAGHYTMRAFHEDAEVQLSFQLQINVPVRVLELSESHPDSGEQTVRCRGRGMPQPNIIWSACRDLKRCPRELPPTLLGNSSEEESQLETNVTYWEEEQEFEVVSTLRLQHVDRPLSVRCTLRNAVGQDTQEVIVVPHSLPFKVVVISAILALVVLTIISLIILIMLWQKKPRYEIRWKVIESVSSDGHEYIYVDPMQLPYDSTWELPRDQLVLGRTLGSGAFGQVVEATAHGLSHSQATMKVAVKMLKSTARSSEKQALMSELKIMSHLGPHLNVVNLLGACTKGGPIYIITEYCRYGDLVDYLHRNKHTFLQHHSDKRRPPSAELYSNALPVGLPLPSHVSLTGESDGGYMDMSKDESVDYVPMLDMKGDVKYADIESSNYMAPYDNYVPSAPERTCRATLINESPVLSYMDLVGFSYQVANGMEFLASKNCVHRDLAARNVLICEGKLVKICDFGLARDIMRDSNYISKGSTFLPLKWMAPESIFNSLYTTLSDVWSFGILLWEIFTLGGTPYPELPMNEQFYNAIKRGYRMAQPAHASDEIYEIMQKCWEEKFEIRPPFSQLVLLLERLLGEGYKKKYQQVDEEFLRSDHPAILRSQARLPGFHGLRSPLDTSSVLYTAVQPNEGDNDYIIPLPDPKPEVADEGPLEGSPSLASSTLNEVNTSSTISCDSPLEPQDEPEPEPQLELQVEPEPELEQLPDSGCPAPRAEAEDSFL

Sequence of VEGFR2 (cytoplasmic domain KDR protein) (P35968 786-1356): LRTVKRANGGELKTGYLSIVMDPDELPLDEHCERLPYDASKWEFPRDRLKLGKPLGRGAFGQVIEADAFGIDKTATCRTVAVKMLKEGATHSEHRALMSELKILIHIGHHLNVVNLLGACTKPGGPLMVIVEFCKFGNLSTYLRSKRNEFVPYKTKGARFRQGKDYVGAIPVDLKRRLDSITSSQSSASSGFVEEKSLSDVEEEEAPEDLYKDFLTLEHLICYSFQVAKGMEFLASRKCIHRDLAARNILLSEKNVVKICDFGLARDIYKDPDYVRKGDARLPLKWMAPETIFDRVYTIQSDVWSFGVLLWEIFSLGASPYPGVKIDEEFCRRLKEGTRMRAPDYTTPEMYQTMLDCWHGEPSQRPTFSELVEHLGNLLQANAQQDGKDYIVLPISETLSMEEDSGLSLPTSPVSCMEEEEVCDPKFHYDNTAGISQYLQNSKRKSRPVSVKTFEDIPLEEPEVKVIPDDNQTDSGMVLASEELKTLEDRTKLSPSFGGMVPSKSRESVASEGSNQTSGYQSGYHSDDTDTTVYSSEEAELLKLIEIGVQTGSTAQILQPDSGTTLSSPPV
Sequence of recombinant human GST-PKR (P19525 whole entry): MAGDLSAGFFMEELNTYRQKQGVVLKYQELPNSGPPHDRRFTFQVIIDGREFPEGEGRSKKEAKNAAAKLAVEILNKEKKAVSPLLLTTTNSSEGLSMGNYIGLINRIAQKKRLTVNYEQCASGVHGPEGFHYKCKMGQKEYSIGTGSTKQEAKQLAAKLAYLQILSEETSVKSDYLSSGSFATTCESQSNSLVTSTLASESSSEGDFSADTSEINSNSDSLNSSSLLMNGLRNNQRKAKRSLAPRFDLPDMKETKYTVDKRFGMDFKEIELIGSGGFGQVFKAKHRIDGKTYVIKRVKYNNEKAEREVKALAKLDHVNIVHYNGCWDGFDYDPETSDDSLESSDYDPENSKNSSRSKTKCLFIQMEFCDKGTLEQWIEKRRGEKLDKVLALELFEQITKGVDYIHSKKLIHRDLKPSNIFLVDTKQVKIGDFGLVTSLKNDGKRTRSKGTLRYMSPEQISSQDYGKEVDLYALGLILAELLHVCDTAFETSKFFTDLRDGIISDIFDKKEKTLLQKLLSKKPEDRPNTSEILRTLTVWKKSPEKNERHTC
Sequence of VEGFR2 (P35968 20-1356): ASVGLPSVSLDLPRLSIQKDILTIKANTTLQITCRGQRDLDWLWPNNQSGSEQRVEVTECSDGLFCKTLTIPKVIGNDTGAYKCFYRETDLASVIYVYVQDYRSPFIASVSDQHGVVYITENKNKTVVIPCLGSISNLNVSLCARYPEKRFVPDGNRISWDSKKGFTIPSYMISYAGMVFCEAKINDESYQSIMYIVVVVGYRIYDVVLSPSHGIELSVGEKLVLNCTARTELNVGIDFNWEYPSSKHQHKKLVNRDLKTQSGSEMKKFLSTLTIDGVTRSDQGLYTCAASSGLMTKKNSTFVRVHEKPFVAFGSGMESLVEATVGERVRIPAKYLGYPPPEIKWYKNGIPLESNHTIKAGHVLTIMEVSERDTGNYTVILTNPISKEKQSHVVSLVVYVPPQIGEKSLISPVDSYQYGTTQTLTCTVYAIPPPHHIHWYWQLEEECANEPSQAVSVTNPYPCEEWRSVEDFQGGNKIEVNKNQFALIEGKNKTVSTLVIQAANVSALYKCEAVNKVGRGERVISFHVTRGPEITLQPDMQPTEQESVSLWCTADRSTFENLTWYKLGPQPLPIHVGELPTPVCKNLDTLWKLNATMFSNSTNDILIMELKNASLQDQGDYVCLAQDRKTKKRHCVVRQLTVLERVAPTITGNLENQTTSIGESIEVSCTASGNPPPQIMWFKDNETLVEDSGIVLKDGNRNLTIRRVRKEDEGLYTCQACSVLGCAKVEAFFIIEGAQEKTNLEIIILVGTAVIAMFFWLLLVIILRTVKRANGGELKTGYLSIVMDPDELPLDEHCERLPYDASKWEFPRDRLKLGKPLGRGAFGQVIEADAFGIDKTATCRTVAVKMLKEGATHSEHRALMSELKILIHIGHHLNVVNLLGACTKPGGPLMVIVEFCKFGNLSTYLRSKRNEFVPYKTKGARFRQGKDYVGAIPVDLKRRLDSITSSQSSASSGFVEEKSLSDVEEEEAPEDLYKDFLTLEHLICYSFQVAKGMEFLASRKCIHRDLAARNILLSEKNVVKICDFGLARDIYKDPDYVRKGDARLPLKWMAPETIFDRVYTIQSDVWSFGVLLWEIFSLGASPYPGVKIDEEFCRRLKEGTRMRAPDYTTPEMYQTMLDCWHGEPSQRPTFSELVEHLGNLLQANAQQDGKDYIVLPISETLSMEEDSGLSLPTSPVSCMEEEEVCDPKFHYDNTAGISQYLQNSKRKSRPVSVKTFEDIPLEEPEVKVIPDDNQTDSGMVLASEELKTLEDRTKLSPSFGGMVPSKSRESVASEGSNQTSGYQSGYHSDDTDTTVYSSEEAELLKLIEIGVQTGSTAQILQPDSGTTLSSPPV
Sequence of PDGFRβ (cytoplasmic domain PDGFR-b protein) (P09619 554-1106): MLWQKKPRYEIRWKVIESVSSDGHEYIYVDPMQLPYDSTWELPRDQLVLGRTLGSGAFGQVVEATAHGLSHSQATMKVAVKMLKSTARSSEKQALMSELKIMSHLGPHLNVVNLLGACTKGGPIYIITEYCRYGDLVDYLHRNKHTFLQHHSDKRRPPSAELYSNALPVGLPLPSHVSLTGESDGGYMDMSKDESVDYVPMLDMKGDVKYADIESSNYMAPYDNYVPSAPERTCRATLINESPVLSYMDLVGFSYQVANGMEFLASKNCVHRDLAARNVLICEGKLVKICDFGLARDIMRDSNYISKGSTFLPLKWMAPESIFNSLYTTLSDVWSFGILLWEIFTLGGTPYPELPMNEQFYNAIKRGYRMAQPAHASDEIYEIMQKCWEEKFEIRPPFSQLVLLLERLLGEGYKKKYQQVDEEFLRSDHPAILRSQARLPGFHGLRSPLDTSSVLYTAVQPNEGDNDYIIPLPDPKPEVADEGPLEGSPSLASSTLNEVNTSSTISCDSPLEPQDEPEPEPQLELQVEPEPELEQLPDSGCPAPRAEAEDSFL

For orientation: IC50 means the midpoint of a concentration-inhibition curve. Consider `CS(C)(=O)=NC(=O)c1cncc(-c2cc3cc(NC(=O)Nc4cc(C(F)(F)F)ccc4F)ccc3s2)c1` [Example 57, N-[dimethyl(oxido)-λ^4-sulfanylidene]-5-{5-[({[2-fluoro-5-(trifluoromethyl)phenyl]amino}carbonyl)amino]-1-benzothien-2-yl}nicotinamide], for which the IC50 was determined as 7 nM in experiment [1] and 551 nM in experiment [2].
For `CS(C)(=O)=NC(=O)c1cnc(N)c(-c2cc3cc(NC(=O)Nc4cc(C(F)(F)F)ccc4F)ccc3s2)c1` [Example 6, 6-amino-N-[dimethyl(oxido)-λ^4-sulfanylidene]-5-{5-[({[2-fluoro-5-(trifluoromethyl)phenyl]amino}carbonyl)amino]-1-benzothien-2-yl}nicotinamide], the half-inhibitory concentration (IC50) amounted to 5 nM on VEGFR2, 27 nM in experiment [3], 6 nM in experiment [1] and 167 nM in experiment [2].
Consider `CS(C)(=O)=NC(=O)c1cnc(N)c(-c2cc3cc(NC(=O)Nc4ccc(Cl)c(C(F)(F)F)c4)ccc3s2)c1` [Example 5, 6-amino-5-{5-[({[4-chloro-3-(trifluoromethyl)phenyl]amino}carbonyl)amino]-1-benzothien-2-yl}-N-[dimethyl(oxido)-λ^4-sulfanylidene]nicotinamide], for which the IC50 at VEGFR2 worked out at 11 nM; in experiment [3], 21 nM; in experiment [1], 6 nM; in experiment [2] it was 69 nM.
On to `CS(C)(=O)=NC(=O)c1cncc(-c2cc3cc(NC(=O)Nc4ccc(Cl)c(C(F)(F)F)c4)ccc3s2)c1` [Example 58, 5-{5-[({[4-chloro-3-(trifluoromethyl)phenyl]amino}carbonyl)amino]-1-benzothien-2-yl}-N-[dimethyl(oxido)-Δ^4-sulfanylidene]nicotinamide], for which the concentration for half-maximal inhibition (IC50) in experiment [1] is 14 nM; in experiment [2] it was 390 nM.
On to `COP(=O)(OC)c1cnc(N)c(-c2ccc(NC(=O)Nc3cccc(C(F)(F)F)c3)cc2)c1` [Example 64, dimethyl (6-amino-5-(4-(3-(3-(trifluoromethyl)phenyl)ureido)phenyl)pyridin-3-yl)phosphonate], for which the IC50 at PDGFRβ is 66 nM.

For the origin of these results see patent US9868726B2, “Pyridyl benzothiophenes as kinase inhibitors” (Allergan, Inc., priority 2014, dated 2018).
